Measured values reported in article PMC8213057, “Targeting ALK2: An Open Science Approach to Developing Therapeutics for the Treatment of Diffuse Intrinsic Pontine Glioma” (Journal of Medicinal Chemistry, 2020).
Values joined by “and” are separate entries in the source; they are usually repeats but may differ in a detail not shown here. Identical values can stand only once.

How the values were obtained:
[1] = biological target: CDK1/cyclin E (Homo sapiens, UniProt P06493); experiment: biochemical; details: read-out: % enzyme activity, 1 μM; Run 1, Run 2
[2] = biological target: RSK4 (Homo sapiens, UniProt Q9UK32); details: 1 μM; Run 1, Run 2
[3] = biological target: T1, RIPK5 (Homo sapiens, UniProt Q6XUX3); experiment: biochemical; details: read-out: % enzyme activity, 1 μM; Run 1, Run 2
T1 sequence (Q6XUX3 1-929): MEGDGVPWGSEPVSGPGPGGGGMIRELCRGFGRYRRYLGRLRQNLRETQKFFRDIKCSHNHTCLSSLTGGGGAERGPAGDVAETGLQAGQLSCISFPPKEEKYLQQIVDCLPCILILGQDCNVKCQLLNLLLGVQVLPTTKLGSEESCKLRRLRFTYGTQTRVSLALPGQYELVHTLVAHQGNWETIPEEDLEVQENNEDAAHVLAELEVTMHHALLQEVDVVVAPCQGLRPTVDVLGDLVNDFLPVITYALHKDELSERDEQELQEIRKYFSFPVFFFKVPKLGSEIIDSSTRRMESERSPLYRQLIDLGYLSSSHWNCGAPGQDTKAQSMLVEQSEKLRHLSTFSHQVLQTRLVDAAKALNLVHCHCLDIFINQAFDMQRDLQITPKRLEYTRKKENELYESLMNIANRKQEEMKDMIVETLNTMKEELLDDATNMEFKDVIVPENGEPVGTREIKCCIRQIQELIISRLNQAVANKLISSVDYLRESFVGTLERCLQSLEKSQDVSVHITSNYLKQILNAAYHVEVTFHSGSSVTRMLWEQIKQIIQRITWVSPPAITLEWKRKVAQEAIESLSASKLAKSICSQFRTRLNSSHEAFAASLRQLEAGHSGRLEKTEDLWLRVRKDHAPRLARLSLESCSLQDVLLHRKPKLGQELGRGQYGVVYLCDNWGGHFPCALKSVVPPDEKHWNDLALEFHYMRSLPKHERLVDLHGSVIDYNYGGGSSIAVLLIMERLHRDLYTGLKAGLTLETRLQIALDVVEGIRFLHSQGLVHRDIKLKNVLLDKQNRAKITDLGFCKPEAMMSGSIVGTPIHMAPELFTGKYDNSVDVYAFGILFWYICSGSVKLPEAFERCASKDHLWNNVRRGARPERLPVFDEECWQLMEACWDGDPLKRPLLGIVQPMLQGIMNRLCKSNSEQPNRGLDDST

[4] = biological target: PKN2/PRK2 (Homo sapiens, UniProt Q16513); experiment: biochemical; details: read-out: % enzyme activity, 1 μM; Run 1, Run 2
[5] = biological target: MST3/STK24 (Homo sapiens, UniProt Q9Y6E0); details: 1 μM; Run 1, Run 2
[6] = biological target: c-MET (Homo sapiens, UniProt P08581); experiment: biochemical; details: read-out: % enzyme activity, 1 μM; Run 1, Run 2
[7] = biological target: RSK2 (Homo sapiens, UniProt P51812); details: 1 μM; Run 1, Run 2
[8] = biological target: SYK (Homo sapiens, UniProt P43405); experiment: biochemical; details: read-out: % enzyme activity, 1 μM; Run 1, Run 2
[9] = biological target: MYO3A (Homo sapiens, UniProt Q8NEV4); details: 1 μM; Run 1, Run 2
[10] = biological target: T2, GRK1 (Homo sapiens, UniProt Q15835); experiment: biochemical; details: read-out: % enzyme activity, 1 μM; Run 1, Run 2
T2 sequence (Q15835 1-563): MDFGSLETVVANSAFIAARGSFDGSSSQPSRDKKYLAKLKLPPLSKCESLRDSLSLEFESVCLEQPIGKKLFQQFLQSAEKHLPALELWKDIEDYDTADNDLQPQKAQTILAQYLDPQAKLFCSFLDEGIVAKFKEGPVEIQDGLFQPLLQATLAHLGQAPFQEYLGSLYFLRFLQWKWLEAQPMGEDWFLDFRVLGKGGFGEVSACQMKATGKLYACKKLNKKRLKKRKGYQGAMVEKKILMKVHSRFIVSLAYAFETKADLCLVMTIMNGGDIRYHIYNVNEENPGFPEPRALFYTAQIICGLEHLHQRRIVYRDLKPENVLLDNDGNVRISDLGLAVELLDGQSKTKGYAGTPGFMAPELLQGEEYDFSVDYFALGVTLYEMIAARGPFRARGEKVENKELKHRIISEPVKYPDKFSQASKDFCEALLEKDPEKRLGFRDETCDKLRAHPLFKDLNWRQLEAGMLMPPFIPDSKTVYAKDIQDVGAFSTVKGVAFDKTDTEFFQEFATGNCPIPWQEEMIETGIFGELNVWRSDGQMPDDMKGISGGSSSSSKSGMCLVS

[11] = biological target: MRCKb/CDC42BPB (Homo sapiens, UniProt Q9Y5S2); details: 1 μM; Run 1, Run 2
[12] = biological target: STK16 (Homo sapiens, UniProt O75716); details: 1 μM; Run 1, Run 2
[13] = biological target: c-Src (Homo sapiens, UniProt P12931); details: 1 μM; Run 1, Run 2
[14] = biological target: LYN (Homo sapiens, UniProt P07948); experiment: biochemical; details: read-out: % enzyme activity, 1 μM; Run 1, Run 2
[15] = biological target: CLK1 (Homo sapiens, UniProt P49759); experiment: biochemical; details: read-out: % enzyme activity, 1 μM; Run 1, Run 2
[16] = system: DYRK1B

Chain of PKN2/PRK2 (Q16513 whole entry): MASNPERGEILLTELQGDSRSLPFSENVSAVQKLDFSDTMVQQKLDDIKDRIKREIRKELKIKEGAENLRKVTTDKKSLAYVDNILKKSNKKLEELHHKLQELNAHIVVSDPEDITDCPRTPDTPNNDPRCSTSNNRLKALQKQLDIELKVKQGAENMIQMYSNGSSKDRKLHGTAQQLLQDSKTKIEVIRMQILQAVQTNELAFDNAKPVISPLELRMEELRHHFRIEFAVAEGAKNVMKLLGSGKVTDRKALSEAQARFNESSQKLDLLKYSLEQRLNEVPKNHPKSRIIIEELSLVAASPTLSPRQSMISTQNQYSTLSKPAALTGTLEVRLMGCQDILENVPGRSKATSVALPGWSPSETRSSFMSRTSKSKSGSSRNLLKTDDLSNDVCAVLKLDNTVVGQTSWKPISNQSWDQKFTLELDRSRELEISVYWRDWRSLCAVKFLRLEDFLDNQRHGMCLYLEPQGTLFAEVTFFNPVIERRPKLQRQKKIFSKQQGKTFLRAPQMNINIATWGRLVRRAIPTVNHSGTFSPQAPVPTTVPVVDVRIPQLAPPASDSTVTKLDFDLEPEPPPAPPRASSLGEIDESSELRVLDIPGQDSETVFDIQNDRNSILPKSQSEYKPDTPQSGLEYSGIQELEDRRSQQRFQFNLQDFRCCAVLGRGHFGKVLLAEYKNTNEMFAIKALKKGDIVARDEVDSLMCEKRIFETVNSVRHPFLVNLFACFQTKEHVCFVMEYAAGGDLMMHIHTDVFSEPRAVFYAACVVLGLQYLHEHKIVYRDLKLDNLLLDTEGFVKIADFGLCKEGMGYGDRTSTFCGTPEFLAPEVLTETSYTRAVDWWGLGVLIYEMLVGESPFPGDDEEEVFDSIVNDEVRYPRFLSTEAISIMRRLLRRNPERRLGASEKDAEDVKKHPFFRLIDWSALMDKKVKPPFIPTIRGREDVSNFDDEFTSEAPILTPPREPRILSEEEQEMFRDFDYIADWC
Chain of MST3/STK24 (Q9Y6E0 whole entry): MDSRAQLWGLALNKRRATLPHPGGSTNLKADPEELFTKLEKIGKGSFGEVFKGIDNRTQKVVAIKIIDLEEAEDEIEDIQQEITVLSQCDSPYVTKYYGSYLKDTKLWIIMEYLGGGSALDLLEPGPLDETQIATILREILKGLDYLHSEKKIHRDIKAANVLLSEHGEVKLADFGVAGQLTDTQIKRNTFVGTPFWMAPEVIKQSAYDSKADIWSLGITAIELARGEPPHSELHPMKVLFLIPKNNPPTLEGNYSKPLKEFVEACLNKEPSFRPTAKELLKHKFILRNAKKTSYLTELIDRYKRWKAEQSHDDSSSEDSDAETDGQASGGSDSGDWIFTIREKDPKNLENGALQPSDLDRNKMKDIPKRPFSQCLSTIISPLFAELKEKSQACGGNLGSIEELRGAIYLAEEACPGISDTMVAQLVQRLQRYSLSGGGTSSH
Chain of CDK1/cyclin E (P24864 whole entry): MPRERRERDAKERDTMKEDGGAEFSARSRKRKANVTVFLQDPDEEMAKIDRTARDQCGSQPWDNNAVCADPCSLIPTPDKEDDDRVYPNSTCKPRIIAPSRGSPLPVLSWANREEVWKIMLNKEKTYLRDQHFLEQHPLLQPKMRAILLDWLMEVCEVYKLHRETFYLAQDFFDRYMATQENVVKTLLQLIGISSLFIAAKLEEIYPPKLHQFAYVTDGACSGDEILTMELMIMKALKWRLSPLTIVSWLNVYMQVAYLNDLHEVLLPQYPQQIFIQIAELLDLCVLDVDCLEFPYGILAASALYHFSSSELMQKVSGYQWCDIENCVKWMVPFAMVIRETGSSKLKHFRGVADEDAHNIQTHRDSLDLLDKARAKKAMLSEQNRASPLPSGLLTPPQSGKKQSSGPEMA
Chain of CDK1/cyclin E (P06493 whole entry): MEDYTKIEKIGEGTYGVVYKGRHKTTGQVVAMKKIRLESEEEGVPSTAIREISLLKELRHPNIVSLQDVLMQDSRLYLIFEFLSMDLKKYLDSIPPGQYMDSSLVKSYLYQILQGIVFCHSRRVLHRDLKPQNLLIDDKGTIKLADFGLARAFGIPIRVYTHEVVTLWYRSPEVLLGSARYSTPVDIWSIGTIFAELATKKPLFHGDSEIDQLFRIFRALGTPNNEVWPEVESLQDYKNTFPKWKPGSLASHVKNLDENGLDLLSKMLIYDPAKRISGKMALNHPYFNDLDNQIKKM
Chain of MRCKb/CDC42BPB (Q9Y5S2 whole entry): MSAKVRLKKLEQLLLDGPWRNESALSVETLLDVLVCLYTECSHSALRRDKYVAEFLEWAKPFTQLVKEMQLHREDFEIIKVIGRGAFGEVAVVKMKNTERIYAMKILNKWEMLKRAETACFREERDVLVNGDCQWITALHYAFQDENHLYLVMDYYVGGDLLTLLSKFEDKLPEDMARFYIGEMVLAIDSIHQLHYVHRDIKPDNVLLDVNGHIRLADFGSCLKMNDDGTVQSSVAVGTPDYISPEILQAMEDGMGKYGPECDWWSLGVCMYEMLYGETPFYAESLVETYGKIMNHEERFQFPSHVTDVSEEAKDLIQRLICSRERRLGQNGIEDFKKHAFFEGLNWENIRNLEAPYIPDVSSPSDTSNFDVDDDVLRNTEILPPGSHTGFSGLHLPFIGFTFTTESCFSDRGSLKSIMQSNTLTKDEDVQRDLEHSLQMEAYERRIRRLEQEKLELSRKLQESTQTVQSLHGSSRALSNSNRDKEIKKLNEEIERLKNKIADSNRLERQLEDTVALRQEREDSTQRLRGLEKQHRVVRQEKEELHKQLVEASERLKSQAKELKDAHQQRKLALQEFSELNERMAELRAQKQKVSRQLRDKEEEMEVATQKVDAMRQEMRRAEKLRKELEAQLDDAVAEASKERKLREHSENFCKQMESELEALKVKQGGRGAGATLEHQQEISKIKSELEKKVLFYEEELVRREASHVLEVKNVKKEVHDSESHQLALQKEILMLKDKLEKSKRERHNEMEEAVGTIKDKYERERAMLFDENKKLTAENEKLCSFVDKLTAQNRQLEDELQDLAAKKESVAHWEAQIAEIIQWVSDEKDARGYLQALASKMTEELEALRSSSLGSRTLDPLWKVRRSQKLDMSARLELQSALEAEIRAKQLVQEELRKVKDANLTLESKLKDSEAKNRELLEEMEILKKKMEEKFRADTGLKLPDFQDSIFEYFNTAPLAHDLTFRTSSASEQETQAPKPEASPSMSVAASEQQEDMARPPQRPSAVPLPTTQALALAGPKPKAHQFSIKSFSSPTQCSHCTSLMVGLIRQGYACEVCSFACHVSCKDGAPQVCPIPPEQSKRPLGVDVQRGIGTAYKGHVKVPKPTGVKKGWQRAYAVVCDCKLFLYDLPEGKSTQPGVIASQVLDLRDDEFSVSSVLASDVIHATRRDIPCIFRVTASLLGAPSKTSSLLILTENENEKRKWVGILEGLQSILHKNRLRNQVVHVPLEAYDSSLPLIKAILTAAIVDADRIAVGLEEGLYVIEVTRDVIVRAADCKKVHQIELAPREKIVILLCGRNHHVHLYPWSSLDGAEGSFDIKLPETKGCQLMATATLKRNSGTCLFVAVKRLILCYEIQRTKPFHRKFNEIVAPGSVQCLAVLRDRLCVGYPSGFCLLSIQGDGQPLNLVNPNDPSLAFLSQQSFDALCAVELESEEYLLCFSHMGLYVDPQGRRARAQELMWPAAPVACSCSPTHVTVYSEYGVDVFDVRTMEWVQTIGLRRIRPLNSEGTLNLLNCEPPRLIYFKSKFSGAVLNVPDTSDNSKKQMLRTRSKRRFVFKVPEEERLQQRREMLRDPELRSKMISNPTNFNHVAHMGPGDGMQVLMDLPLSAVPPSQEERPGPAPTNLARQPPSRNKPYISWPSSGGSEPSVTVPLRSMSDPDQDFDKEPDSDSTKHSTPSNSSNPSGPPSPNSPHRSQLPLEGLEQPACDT
Chain of c-Src (P12931 whole entry): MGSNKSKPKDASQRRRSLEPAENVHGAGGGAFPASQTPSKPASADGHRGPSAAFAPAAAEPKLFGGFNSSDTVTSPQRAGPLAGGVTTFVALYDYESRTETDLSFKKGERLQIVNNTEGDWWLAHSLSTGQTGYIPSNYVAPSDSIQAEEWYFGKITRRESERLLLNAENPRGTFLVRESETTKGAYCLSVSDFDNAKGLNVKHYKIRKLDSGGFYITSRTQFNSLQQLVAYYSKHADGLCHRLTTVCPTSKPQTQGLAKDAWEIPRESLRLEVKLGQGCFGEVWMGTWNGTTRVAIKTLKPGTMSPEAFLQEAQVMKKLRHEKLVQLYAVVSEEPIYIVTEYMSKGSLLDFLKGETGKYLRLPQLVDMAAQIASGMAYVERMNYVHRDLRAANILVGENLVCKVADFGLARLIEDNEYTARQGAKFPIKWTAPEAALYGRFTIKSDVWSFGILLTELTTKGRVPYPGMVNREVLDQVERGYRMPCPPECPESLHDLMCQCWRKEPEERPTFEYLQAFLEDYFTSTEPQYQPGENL
Chain of STK16 (O75716 whole entry): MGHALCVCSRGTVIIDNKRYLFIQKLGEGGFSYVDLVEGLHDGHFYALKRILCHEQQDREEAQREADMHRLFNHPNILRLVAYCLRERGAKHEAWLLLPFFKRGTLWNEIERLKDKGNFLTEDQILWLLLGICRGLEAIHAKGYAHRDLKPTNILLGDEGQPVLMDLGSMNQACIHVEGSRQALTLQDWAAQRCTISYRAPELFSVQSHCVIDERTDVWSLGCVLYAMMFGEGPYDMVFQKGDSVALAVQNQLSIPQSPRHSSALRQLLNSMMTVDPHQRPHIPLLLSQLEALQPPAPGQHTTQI

Row | Compound | remaining activity at 1 µM [1] [%] | % enzyme activity [2] [%] | remaining activity at 1 µM [3] [%] | remaining activity at 1 µM [4] [%] | % enzyme activity [5] [%] | remaining activity at 1 µM [6] [%] | % enzyme activity [7] [%] | remaining activity at 1 µM [8] [%] | % enzyme activity [9] [%] | remaining activity at 1 µM [10] [%] | % enzyme activity [11] [%] | % enzyme activity [12] [%] | % enzyme activity [13] [%] | remaining activity at 1 µM [14] [%] | remaining activity at 1 µM [15] [%] | % enzyme activity at 1 μM [16]
1 | COc1cc(-c2cncc(-c3ccc(N4CCN(C)CC4)cc3)c2C)cc(F)c1C(N)=O [Compound 26a, 2-Fluoro-6-methoxy-4-(4-methyl-5-(4-(4-methylpiperazin-1-yl)phenyl)pyridin-3-yl)benzamide] | 98.3 | 95.64 | 83.1 | 94.5 | 87.91 | 100 | 99.92 | 101 | 81.86 | 94 | 94.42 | 103.69 | 96.22 | 79.9 | 97.8 | 40.6% and 39.8%
2 | COc1cc(-c2cncc(-c3ccc(N4C[C@@H](C)N(C)[C@@H](C)C4)cc3)c2C)cc(F)c1C(N)=O [Compound 26c, 2-Fluoro-6-methoxy-4-(4-methyl-5-(4-((3R,5S)-3,4,5-trimethylpiperazin-1-yl)phenyl)pyridin-3-yl)benzamide] | 92.4 | 94.61 | 86.8 | 95.9 | 94.57 | 107 | 101.06 | 102 | 94.68 | 95.3 | 99.47 | 99.45 | 97.10 | 91 | 88 | 59.2% and 58.5%
